According to patent US10155021B2, “Antimicrobial 4-oxoquinolizines” (Emergent Product Development Gaithersburg Inc., priority 2011, dated 2018):
In brackets after ≈: the same amount, converted by molar mass. Read-outs that look alike come from different tables or passages of the source.

Assays:
[1] = test system: B. thailandensis; assay: microbe, parasite or virus in culture; assay type: cell-based, Burkholderia thailandensis; conditions: Burkholderia thailandensis, read-out: MIC90 B. thailandensis
[2] = test system: S. aureus 25923; assay: MIC, standard panel of Gram-positive and Gram-negative bacteria (CLSI); assay type: cell-based, Staphylococcus aureus; conditions: Staphylococcus aureus, 25923; CAMHB; read-out: MIC S. aureus 25923
[3] = test system: S. epidermis 12228; assay: as above; assay type: cell-based, Staphylococcus epidermis; conditions: Staphylococcus, 12228; CAMHB; read-out: MIC S. epidermis 12228
[4] = test system: E. coli 25922; assay: as above; assay type: cell-based, Escherichia coli; conditions: Escherichia coli, 25922; CAMHB; read-out: MIC E. coli 25922
[5] = test system: P. aeruginosa 27853; assay: as above; assay type: cell-based, Pseudomonas aeruginosa; conditions: Pseudomonas aeruginosa, 27853; CAMHB; read-out: MIC P. aeruginosa 27853
[6] = test system: A. Baumanii OXA-51; assay: MIC, panel of quinolone-resistant strains (CLSI); assay type: cell-based; conditions: Acinetobacter baumannii; CIP R, ESBL
[7] = test system: S. aureus SMITH; assay: MIC, panel of quinolone-resistant strains (CLSI); assay type: cell-based; conditions: Staphylococcus aureus; CIP R
[8] = test system: S. pneumoniae 49619; assay: MIC, panel of quinolone-resistant strains (CLSI); assay type: cell-based; conditions: Streptococcus pneumoniae, LEV S
[9] = test system: A. baumannii J2; assay: MIC determination for Acinetobacter strains (Example 3); assay type: cell-based; conditions: LEV R, CIP R
[10] = test system: Acinetobacter spp. H064200250; assay: as above; assay type: cell-based, Acinetobacter sp.; conditions: LEV R, CIP R, MRP R, IMP I
[11] = test system: A. baumannii A489; assay: as above; assay type: cell-based; conditions: LEV R, CIP R, MRP R, IMP R, AMK R, TET R
[12] = test system: A. baumannii A387; assay: as above; assay type: cell-based; conditions: LEV I, CIP R, IPM R, AMK R, TET R
[13] = test system: A. baumannii A390; assay: as above; assay type: cell-based; conditions: LEV R, CIP R, MRP R, IPM I, AMK R, TET I
[14] = test system: A. baumannii A473; assay: as above; assay type: cell-based; conditions: LEV R, CIP R, MRP R, IMP R, AMK R, TET R
[15] = test system: 11 strains of A. baumannii and one strain of Acinetobacter sp.; assay: Preliminary MBC without and with sub-inhibitory polymyxin B, whole panel (Example 4; also strains not listed separately); assay type: cell-based; conditions: Acinetobacter baumannii, read-out: MBC without PB
[16] = test system: A. baumannii A387; assay: MIC without and with sub-inhibitory polymyxin B (Example 4); assay type: cell-based, Acinetobacter baumannii; conditions: Acinetobacter baumannii, A387, A. baumannii A387, without polymyxin B, read-out: MIC without PB
[17] = test system: A. baumannii A390; assay: as above; assay type: cell-based, Acinetobacter baumannii; conditions: Acinetobacter baumannii, A390, A. baumannii A390, without polymyxin B, read-out: MIC without PB
[18] = test system: A. baumannii A329; assay: Preliminary MBC without and with sub-inhibitory polymyxin B (Example 4); assay type: cell-based, Acinetobacter baumannii; conditions: Acinetobacter baumannii, A329, A. baumannii A329, without polymyxin B, read-out: MBC without PB
[19] = test system: A. baumannii A387; assay: as above; assay type: cell-based, Acinetobacter baumannii; conditions: Acinetobacter baumannii, A387, A. baumannii A387, without polymyxin B, 2nd experiment, read-out: MBC without PB
[20] = test system: A. baumannii A401; assay: as above; assay type: cell-based, Acinetobacter baumannii; conditions: Acinetobacter baumannii, A401, A baumannii A 401, without polymyxin B, preliminary MBC, read-out: MBC without PB
[21] = test system: E. coli IMP; assay: microbe, parasite or virus in culture; conditions: Escherichia coli, read-out: MIC E. coli IMP
[22] = test system: S. pneumoniae 1027; assay: MIC, panel of quinolone-resistant strains (CLSI); assay type: cell-based; conditions: Streptococcus pneumoniae, LEV R
[23] = test system: A. baumannii ATCC 19606; assay: MIC determination for Acinetobacter strains (Example 3); assay type: cell-based; conditions: ATCC19606, reference strain

SMILES | MIC90 [1] | MIC [2] | MIC [3] | MIC [5] | MIC [6] | MIC [7] | MIC [8] | MIC [10] | MIC [13] | MIC ([16]; 2nd experiment, visual reading) | MIC ([17]; 1st experiment) | MBC ([18]; 2nd experiment) | MBC ([20]; 2nd experiment) | MBC ([20]; 1st experiment) | MIC [21] | other results
Cc1c(-c2cc(F)c(N)cc2F)ccn2c(=O)c(C(=O)O)cc(C3CC3)c12 [Compound 2, 8-(3,6-difluoro-4-amino-phenyl)-1-cyclopropyl-9-methyl-4-oxo-quinolizine-3-carboxylic acid] | < 0.048 µg/mL | < 0.008 µg/mL | < 0.008 µg/mL | 2 µg/mL (≈ 5.4 µM) | 4 µg/mL (≈ 10.8 µM) | < 0.03 µg/mL | < 0.03 µg/mL | 4 µg/mL (≈ 10.8 µM) | 8 µg/mL (≈ 21.6 µM) | 1 µg/mL (≈ 2.7 µM) | 8 µg/mL (≈ 21.6 µM) | 8 µg/mL (≈ 21.6 µM) | 4 µg/mL (≈ 10.8 µM) | 2 µg/mL (≈ 5.4 µM) | < 0.008 µg/mL | MIC [4]: < 0.03 µg/mL; MIC [9]: 4 µg/mL (≈ 10.8 µM); MIC [11]: 2 µg/mL (≈ 5.4 µM); MIC [12]: 0.5 µg/mL (≈ 1.35 µM); MIC [14]: 8 µg/mL (≈ 21.6 µM); MBC ([15]; A. baumannii A14, without polymyxin B, 1st experiment): 16 µg/mL (≈ 43.2 µM); MBC ([15]; A. baumannii A14, without polymyxin B, 2nd experiment): 16 µg/mL (≈ 43.2 µM); MBC ([15]; NCTC13301, A. baumannii NCTC 13301, without polymyxin B, 1st experiment): 8 µg/mL (≈ 21.6 µM); MBC ([15]; NCTC13301, A. baumannii NCTC 13301, without polymyxin B, 2nd experiment): 32 µg/mL (≈ 86.4 µM); MIC ([16]; 1st experiment): 0.5 µg/mL (≈ 1.35 µM); MBC ([18]; 1st experiment): 8 µg/mL (≈ 21.6 µM); MBC [19]: 1 µg/mL (≈ 2.7 µM)
Cc1c(-c2ccc(N)cc2)ccn2c(=O)c(C(=O)O)cc(C3CC3)c12 [Compound 8, 8-(4-amino-phenyl)-1-cyclopropyl-9-methyl-4-oxo-quinolizine-3-carboxylic acid] | < 0.024 µg/mL | < 0.008 µg/mL | < 0.008 µg/mL | 1 µg/mL (≈ 2.99 µM) | 4 µg/mL (≈ 12 µM) | < 0.03 µg/mL | < 0.03 µg/mL | 2 µg/mL (≈ 5.98 µM) | 16 µg/mL (≈ 47.9 µM) | 1 µg/mL (≈ 2.99 µM) | 16 µg/mL (≈ 47.9 µM) | 8 µg/mL (≈ 23.9 µM) | 8 µg/mL (≈ 23.9 µM) | 8 µg/mL (≈ 23.9 µM) | < 0.008 µg/mL | MIC [22]: 2 µg/mL (≈ 5.98 µM); MIC [23]: 1 µg/mL (≈ 2.99 µM); MIC ([17]; 2nd experiment, visual reading): 16 µg/mL (≈ 47.9 µM)
